Experimental data reported in PMC10470178, “Long-acting lenacapavir protects macaques against intravenous challenge with simian-tropic HIV” (eBioMedicine, 2023).
Read-outs that look alike come from different tables or passages of the source.

What was measured:
SIVmac239 = test: Multi-round viral replication assay in SupT1-CCR5 cells, SIVmac239; assay type: cell-based, SIV
Protocol: Infectious stocks of stHIV-A19,[23] HIV-1 NL4-3, and SIVmac239 were produced in HEK-293T (RRID: CVCL_1926) cells transfected with full-length viral genome plasmids using the TransIT HEK-293 transfection reagent (Mirus Bio) according to the manufacturer’s instructions. Virus stock infectious titres were determined on TZM-bl reporter cells (RRID: CVCL_B478) as previously described.[26] For experiments using SupT1-CCR5 target cells (RRID: CVCL_X633),[27] cultures were maintained in RPMI 1640 medium supplemented with 10% foetal bovine serum (FBS), 2 mM glutamine, 100 U/ml penicillin, and 100 μg/ml streptomycin. […] Cells were then washed three times to remove input virus, counted, and cultured in triplicate in growth media containing serial threefold dilutions of LEN or no LEN (control). […] Culture supernatants were collected 7 days post-inoculation, clarified by centrifugation, and stored at −80 °C for later quantification of vRNA by quantitative reverse transcription polymerase chain reaction (qRT-PCR). […] The stHIV-A19 stock was quantified with a SYBR Green-based qPCR-based product-enhanced RT (PERT) assay using a purified reverse transcriptase (RT) protein standard, as previously described.[28] […] After 7 days, the virus in culture supernatants was quantified using the PERT assay. […]

[1] = assay type: in vivo, pigtail macaques (Macaca nemestrina)
Protocol: Sixteen male, purpose-bred pigtail macaques (Macaca nemestrina; ages 4.6–8.5 years at the time of study initiation) were housed at NIH-Bethesda (Supplementary Table S1). All study animals received enrofloxacin (10 mg/kg, administered orally, once per day for 10 days), paromomycin (25 mg/kg, administered orally, twice daily for 7–10 days), and fenbendazole (50 mg/kg administered orally, once per day for 5 days) two weeks to 43 months prior to study initiation. Lenacapavir or drug vehicle (sterile, preservative-free 57.5% w/v polyethylene glycol 300 in water) doses were administered to sedated animals via SC injection into the scapular region such that no more than 2 ml of solution was injected into a single SC site. Animals in the LEN pharmacokinetic evaluation study (N = 6) each received two doses of LEN, both at 15 mg/kg (N = 3) or at 50 mg/kg (N = 3), 6 weeks apart. Animals in the virus challenge experiment each received a single dose of LEN at 25 mg/kg (N = 3, LEN PrEP group) or drug vehicle (N = 4, vehicle control group) 30 days prior to stHIV-A19 challenge, or a cART regimen consisting of tenofovir disoproxil fumarate (TDF), emtricitabine (FTC), and dolutegravir (DTG) (N = 3, TDF/FTC/DTG group), coformulated and administered as previously described[29]^,[30] for 7 days beginning 3 days prior to stHIV-A19 challenge (Supplementary Figure S1). Hair was clipped and skin marked at LEN and vehicle injection sites to allow for subsequent visual and manual assessment and scoring of potential ISRs by non-blinded veterinary care staff. Complete blood counts (CBC) and serum chemistries were monitored prior to and at 2- to 4-week intervals after LEN administration for at least one year. Following the first dose of LEN in the PK study, one animal in the 50-mg/kg dosing group received 7 consecutive days of daily ketoprofen (2 mg/kg) administered intramuscularly for ISR analgesia at veterinary discretion. For the second dose of LEN in the PK study, all animals in the 50-mg/kg dosing group received 5–7 consecutive days of twice daily oral carprofen (2 mg/kg) analgesia administered prophylactically starting on the day of LEN dosing. In the IV challenge PrEP study, all LEN and vehicle control animals received 3–5 consecutive days of twice daily oral carprofen (2 mg/kg) analgesia administered prophylactically starting on the day of injection. For virus challenge, PrEP study animals each received 1 × 10^5 infectious units of stHIV-A19 injected intravenously. After LEN washout, LEN PrEP group animals received a single 50-mg/kg dose of rhesusized depleting anti-CD8α antibody (MT807R1, RRID: AB_2716320, NIH Nonhuman Primate Reagent Resource), administered SC to anesthetized animals.

[2] = parameters: method as in earlier work; settings: single SC injection of 900 mg LEN, Phase 1b clinical trial; cited from earlier work

Structure (SMILES): CC(C)(C#Cc1ccc(-c2ccc(Cl)c3c(NS(C)(=O)=O)nn(CC(F)(F)F)c23)c([C@H](Cc2cc(F)cc(F)c2)NC(=O)Cn2nc(C(F)(F)F)c3c2C(F)(F)[C@@H]2C[C@H]32)n1)S(C)(=O)=O [LEN, Lenacapavir]
- reduced potency against SIVmac239 compared with HIV-1 NL4-3 and stHIV-A19 (SIVmac239): approximately 6 fold
- EC50 (SIVmac239; Simian immunodeficiency virus, 168 h, supernatant vRNA 7 days post-infection, mean ± SD of three independent experiments, read-out: mean EC50 against SIVmac239): 0.502 nM
- ISR cumulative incidence: Erythema ([1]; 15 mg/kg SC, Dose 1): 3/3
- ISR cumulative incidence: Hyperkeratosis ([1]; 15 mg/kg SC, Dose 1): 2/3
- ISR cumulative incidence: Nodule ([1]; 15 mg/kg SC, Dose 1): 3/3
- ISR cumulative incidence: Ulceration ([1]; 15 mg/kg SC, Dose 1): 0/3
- ISR cumulative incidence: Erythema ([1]; 15 mg/kg SC, Dose 2): 0/3
- ISR cumulative incidence: Hyperkeratosis ([1]; 15 mg/kg SC, Dose 2): 0/3
- ISR cumulative incidence: Nodule ([1]; 15 mg/kg SC, Dose 2): 1/3
- ISR cumulative incidence: Ulceration ([1]; 15 mg/kg SC, Dose 2): 0/3
- ISR cumulative incidence: Erythema ([1]; 25 mg/kg SC, Dose 1): 0/3
- ISR cumulative incidence: Hyperkeratosis ([1]; 25 mg/kg SC, Dose 1): 2/3
- ISR cumulative incidence: Nodule ([1]; 25 mg/kg SC, Dose 1): 3/3
- ISR cumulative incidence: Ulceration ([1]; 25 mg/kg SC, Dose 1): 2/3
- ISR cumulative incidence: Erythema ([1]; 50 mg/kg SC, Dose 1): 0/3
- ISR cumulative incidence: Hyperkeratosis ([1]; 50 mg/kg SC, Dose 1): 0/3
- ISR cumulative incidence: Nodule ([1]; 50 mg/kg SC, Dose 1): 3/3
- ISR cumulative incidence: Ulceration ([1]; 50 mg/kg SC, Dose 1): 1/3
- ISR cumulative incidence: Erythema ([1]; 50 mg/kg SC, Dose 2): 0/3
- ISR cumulative incidence: Hyperkeratosis ([1]; 50 mg/kg SC, Dose 2): 2/3
- ISR cumulative incidence: Nodule ([1]; 50 mg/kg SC, Dose 2): 3/3
- ISR cumulative incidence: Ulceration ([1]; 50 mg/kg SC, Dose 2): 2/3
- complete blood counts (CBC) and blood serum chemistries ([1]; PTMs that received SC LEN injections): No abnormalities or significant changes
- injection site reactions (ISRs), severity ([1]; some animals following some SC LEN injections): Mild to moderate
- mean plasma drug concentrations relative to PA-EC95, maintained for 6 months [2]: ≥ 6 fold
